# Reference: patent US10772902B2, “Use of floridoside or isethionic acid to potentiate antimicrobial activity of antibiotics” (OCELAND BIOLOGICALS LIMITED, priority 2016, dated 2020)
# Tests used:
# [1] = tested on: S. Enteritidis; assay: Minimum inhibitory concentrations (MIC25, MIC50) of antibiotics, broth inoculation method; assay type: cell-based; conditions: Salmonella enterica, 37° C., 16-18 h, inoculum 1×10^8 cells/mL
# Procedure: Nalidixic acid resistant strain of S. Enteritidis was provided by Laboratory for Foodborne Zoonoses, Public Health Agency of Canada, Guelph, Ontario. Half strength tryptic soy agar (TSA) medium (Difco) supplemented with nalidixic acid at a concentration of 32 μg/mL was used for bacterial growth. Tetracycline and Streptomycin were obtained from Sigma Aldrich (Oakville, Ontario, Canada). Stock solutions of antibiotics and seaweed extract were prepared and stored at −20° C. Other chemicals and media were purchased from Difco Laboratories, Baltimore, Md., USA. Red seaweeds (Chondrus crispus, and Sarcodiotheca gaudichaudii) were provided by Acadian Seaplants Limited, Nova Scotia, Canada.
# The susceptibility of S. Enteritidis to tetracycline and streptomycin was tested by broth inoculation method. The testing of MICs (MIC25 and MIC50) was performed in triplicates with an inoculum of 1×10^8 cells/mL. […] MATLAB R2010a (curve fitting tool) was used to determine minimum inhibitory concentrations (MIC) of the antibiotics.
# [2] = tested on: S. Enteritidis; assay: Combined effect of seaweed extract and antibiotics, liquid culture inhibition test (CFU); assay type: cell-based, Salmonella Enteritidis
# Procedure: Seaweed water extracts (SWE) were prepared by grinding sun dried seaweeds to fine powder using a coffee grinder, and adding 5 grams of algal powder to 20 mL distilled water (DW). The resulting slurry was incubated at 50° C. for 3 hours under shaking condition at 140 rpm using an orbital shaker (New Brunswick Scientific, Enfield, Conn., US). The slurry was then centrifuged at 10,000 g for 15 min. The supernatant was recovered and the residual pellet was re-extracted three times using the same procedure. The resulting supernatants were pooled and freeze dried (Thermo Fisher Scientific Inc., US). Dilutions of SWE were prepared by dissolving 0.2, 0.4, 0.8, 1 and 2 g of soluble freeze dried extract in 1 mL distilled water. These dilutions were used as working concentration in all the experiments. The combined effect of the C. crispus (CC) extract or the S. gaudichaudii (SG) extract, with tetracycline or streptomycin (at MIC25 or MIC50), was evaluated in vitro by liquid culture inhibition test. To 10 mL of tryptic soy broth, seaweed extract (SWE) and 100 μL Salmonella Enteritidis (OD600=0.1, 1×10^8 cells/mL) were added. The final concentrations of seaweed extracts in 10 mL with tryptic soy broth were 200, 400, or 800 μg/mL. Culture tubes were incubated at 37° C. for 24 hrs. The growth of S. Enteritidis was determined by plating the serially diluted culture on TSA plates to enumerate the colony forming units (CFU).
# [3] = tested on: S. Enteritidis; assay: Antimicrobial effect of seaweed pure compounds, broth inoculation method (log CFU/mL); assay type: cell-based, Salmonella Enteritidis; conditions: 15 μg/mL of compound, no antibiotic; for colony count of S. Enteritidis, log CFU: control log CFU 6.5
# Procedure: These pure compounds were tested in vitro against S. Enteritidis using the broth inoculation method of Example 2, but without the tetracycline or streptomycin. Fifteen (15) μg/mL of each compound was added to TSA broth and inoculated with S. Enteritidis.
Structure (SMILES),MIC [1] [µg/mL],MIC50 [1] [µg/mL],CFU of S. Enteritidis compared to control [3],"colony count of S. Enteritidis, log CFU [3] [log CFU]",further results
CN(C)[C@@H]1C(O)=C(C(N)=O)C(=O)[C@@]2(O)C(O)=C3C(=O)c4c(O)cccc4[C@@](C)(O)[C@H]3C[C@@H]12 [tetracycline],≤ 7.9,≤ 4,,,"growth of S. Enteritidis, log CFU ([2]; MIC controls (tetracycline without SG extract)): 5.5 log CFU; growth of S. Enteritidis, log CFU ([2]; tetracycline alone at MIC25, 24 hrs): 6.1 log CFU; growth of S. Enteritidis, log CFU ([2]; tetracycline alone at MIC50, 24 hrs): 5.5 log CFU"
[H]/N=C(/N)N[C@H]1[C@H](O)[C@@H](O)[C@H](O[C@@H]2O[C@@H](C)[C@](O)(C=O)[C@H]2O[C@@H]2O[C@@H](CO)[C@H](O)[C@@H](O)[C@@H]2NC)[C@@H](N/C(N)=N\[H])[C@@H]1O [Streptomycin],1,1.63,,,
NC(=O)NCCC[C@H](N)C(=O)O [citrulline],,,no statistically significant difference,,
"O=S(=O)(O)CCO [isethionic acid, Isethionic acid]",,,,6.33,
NCCS(=O)(=O)O [taurine],,,no statistically significant difference,,
"OCC(CO)O[C@H]1O[C@H](CO)[C@H](O)[C@H](O)[C@H]1O [Floridoside, 2-O-α-D-galactopyranosylglycerol]",,,,6.21,
